Results: US20220289766A1 (INFLAZOME LIMITED, priority 2019, published 2022)
Counter-ions that a name gives are not always drawn.

Legend:
[1] = target: T1, NLRP3 (Homo sapiens, UniProt Q96P20); test: THP-1 cells pyroptosis assay; assay type: cell-based; set-up: Seed THP-1 cells (25,000 cells/well) containing 1.0 μg/ml LPS in 40 μl of RPMI medium; host or cells: THP-1 cells; settings: LPS 1 μg/ml, compound 3 hrs, nigericin 5 μM 1 hr, resazurin readout
How it was run: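 LPS-primed (1 μg/ml) THP-1 cells, 25,000/well in serum-free RPMI, given compound (8-point half-log, top 10 μM) 3 h at 37° C, then nigericin 5 μM for 1 h. Viability read by resazurin (100 μM, 1-2 h) fluorescence, Ex 560/Em 590; IC50 from 4-parameter fit.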

[2] = target: T1, NLRP3; test: Human whole blood IL-1β release assay; assay type: cell-based; set-up: Plate out 80 μl of whole blood containing 1 μg/ml of LPS in 96-well, clear bottom cell culture plate; from tissue; host or cells: human whole blood from healthy donors; settings: LPS 1 μg/ml, compound 3 hrs, nigericin 10 μM 1 hr, IL-1β by AlphaLisa, read-out: HWB IC50
How it was run: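 Donor human whole blood (Li-heparin) primed with 1 μg/ml LPS plus compound (8-point half-log series, 10 μM top) for 3 h at 37 °C, then 10 μM nigericin for 1 h. Supernatant IL-1β quantified by AlphaLisa; IC50 from 4-parameter variable-slope fit.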

T1 sequence (Q96P20 whole entry): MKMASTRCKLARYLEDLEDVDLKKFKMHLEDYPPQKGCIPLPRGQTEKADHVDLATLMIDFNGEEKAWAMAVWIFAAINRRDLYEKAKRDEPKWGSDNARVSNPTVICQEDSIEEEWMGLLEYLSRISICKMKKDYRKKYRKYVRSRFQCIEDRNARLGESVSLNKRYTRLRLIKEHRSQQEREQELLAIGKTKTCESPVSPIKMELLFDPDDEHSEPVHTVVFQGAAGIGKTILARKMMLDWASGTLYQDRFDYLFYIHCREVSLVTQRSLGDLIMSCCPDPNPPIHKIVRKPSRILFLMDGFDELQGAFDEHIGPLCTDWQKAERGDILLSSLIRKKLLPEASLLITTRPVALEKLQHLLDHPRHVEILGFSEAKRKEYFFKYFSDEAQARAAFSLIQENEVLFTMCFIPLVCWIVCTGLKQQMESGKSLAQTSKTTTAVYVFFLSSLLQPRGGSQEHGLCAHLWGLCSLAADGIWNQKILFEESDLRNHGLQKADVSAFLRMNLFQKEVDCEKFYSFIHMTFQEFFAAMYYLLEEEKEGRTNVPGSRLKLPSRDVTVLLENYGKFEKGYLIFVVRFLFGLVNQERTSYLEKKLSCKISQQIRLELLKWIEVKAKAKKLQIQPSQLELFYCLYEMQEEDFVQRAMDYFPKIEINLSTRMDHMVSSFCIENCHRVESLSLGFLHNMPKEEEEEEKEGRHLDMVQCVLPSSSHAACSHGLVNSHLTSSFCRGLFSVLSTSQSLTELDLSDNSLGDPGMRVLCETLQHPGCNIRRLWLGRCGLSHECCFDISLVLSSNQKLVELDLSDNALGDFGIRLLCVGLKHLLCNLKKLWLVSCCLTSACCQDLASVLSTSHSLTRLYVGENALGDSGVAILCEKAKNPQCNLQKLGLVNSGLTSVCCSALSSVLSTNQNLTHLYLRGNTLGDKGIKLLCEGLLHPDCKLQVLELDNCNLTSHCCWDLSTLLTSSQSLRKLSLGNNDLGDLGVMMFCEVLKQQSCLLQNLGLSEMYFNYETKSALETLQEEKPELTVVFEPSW

IC50 [1] [nM]	IC50 [2] [nM]	SMILES
≤ 100	100 to 500	CC(C)c1cc(F)cc2c1NC(=O)NS(=O)(=O)c1nn(cc1F)CCOc1cc-2ccn1 [Example 44, 4,13-difluoro-6-(propan-2-yl)-18-oxa-11λ^6-thia-8,10,15,20,24-pentaazatetracyclo[17.3.1.1^12,15.0^2,7]-tetracosa-1(22),2(7),3,5,12(24),13,19(23),20-octaene-9,11,11-trione, sodium salt]
1000 to 5000	1000 to 5000	Cc1c2ccnc1OCC(C)(C)n1ccc(n1)S(=O)(=O)NC(=O)Nc1c-2ccc2c1CCC2 [Example 45, 19,19,26-trimethyl-21-oxa-14λ^6-thia-11,13,18,23,27-pentaaza-pentacyclo[20.3.1.1^15,18.0^2,10.0^5,9]-heptacosa-1(25),2,4,9,15(27),16,22(26),23-octaene-12,14,14-trione, sodium salt]
1000 to 5000	1000 to 5000	O=C1Nc2c(ccc3c2CCC3)-c2ccnc(c2)OC2CCC(C2)Cn2ccc(n2)S(=O)(=O)N1 (centres unmarked) [Example 46, 24-oxa-14λ^6-thia-11,13,18,26,31-pentaazahexacyclo-[23.3.1.1^15,18.1^20,23.0^2,10.0^5,9]hentriaconta-1(28),2,4,9,15(31),16,25(29),26-octaene-12,14,14-trione]
500 to 1000	500 to 1000	CC(C)c1cnn2c1NC(=O)NS(=O)(=O)c1nn(cc1F)C(C)(C)COc1cc-2ccn1 [Example 47, 12-fluoro-15,15-dimethyl-5-(propan-2-yl)-17-oxa-10λ^6-thia-2,3,7,9,14,19,23-heptaazatetracyclo-[16.3.1.1^11,14.0^2,6]tricosa-1(21),3,5,11(23),12,18(22),19-heptaene-8,10,10-trione]
